Experimental data reported in US11007269B2, “P53 degradation inducing molecule and pharmaceutical composition” (Tokyo University of Science Foundation, priority 2016, dated 2021).

Molecular target: endogenous wild-type p53 protein (Homo sapiens, UniProt P04637)
Experiment: Western blot of endogenous wild-type p53 protein degradation in HeLa cells, with rescue by proteasome inhibitor
Assay type: cell-based
Parameters: endogenous in cells
Protocol: In Example 3, degradation (knockdown) of an endogenous wild-type p53 protein in HeLa cells (human cervical cancer cells) to which TIBC-CANDDY_MLN has been added was evaluated by Western blot analysis. At the same time, a rescue of degradation of the p53 protein by a proteasome inhibitor (MLN2238) was evaluated.
HeLa cells were seeded in a 24-well plate at a cell density of 4×10^4 cells/well, and then cultured under conditions of 37° C. and 5 vol % CO2 for 16 hours.
After 16 hours from cell seeding, TIBC-CANDDY_MLN was added to HeLa cells as follows. As a medium, a serum-free medium (37° C.) in which 1 mass % L-glutamine solution (Sigma-Aldrich) was added to D-MEM (high D-glucose, phenol red, sodium pyruvate (Wako Pure Chemical Industries, Ltd.)) was used. It is noted that the L-glutamine solution was added immediately before use. A DMSO solution containing TIBC-CANDDY_MLN was mixed with the medium so that the concentration of DMSO was 1 vol %, and added to each well at 500 μL/well, and cultured under conditions of 37° C. and 5 vol % CO2. As a control, DMSO was used. Furthermore, in addition to an experiment group in which a DMSO solution containing TIBC-CANDDY_MLN had been added, an experiment group in which a DMSO solution containing both TIBC-CANDDY_MLN and MLN2238, or MLN2238 had been added was prepared. […]

endogenous wild-type p53 protein, sequence (P04637 whole entry): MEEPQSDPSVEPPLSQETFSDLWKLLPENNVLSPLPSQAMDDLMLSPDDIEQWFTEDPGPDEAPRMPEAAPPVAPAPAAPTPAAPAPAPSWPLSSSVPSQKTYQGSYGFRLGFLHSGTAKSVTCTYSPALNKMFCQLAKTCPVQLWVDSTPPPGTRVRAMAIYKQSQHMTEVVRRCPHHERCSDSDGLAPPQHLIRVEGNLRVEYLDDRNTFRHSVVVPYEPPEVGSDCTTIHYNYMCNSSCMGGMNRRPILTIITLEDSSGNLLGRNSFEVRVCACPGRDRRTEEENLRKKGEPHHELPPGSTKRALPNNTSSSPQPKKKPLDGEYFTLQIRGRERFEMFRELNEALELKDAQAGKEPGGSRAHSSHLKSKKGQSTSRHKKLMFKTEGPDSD

In the case of `CC(C)C[C@H](NC(=O)CNC(=O)c1cc(Cl)ccc1Cl)C(=O)NCCCCCCC(=O)Nc1ccc(C(=O)/C=C/c2ccc(I)cc2)cc1` [TIBC-CANDDY_MLN], the “amount of the endogenous wild-type p53 protein (Western blot)” value (24 hours after addition, vs DMSO control) is reported as “reduced” and the “amount of the wild-type p53 protein when proteasome inhibitor MLN2238 is added as well (rescue)” value (24 hours, both TIBC-CANDDY_MLN and MLN2238 added) is reported as “increased as compared with the control (DMSO)”.
